# Reference: patent US10881110B2, “Herbicidal compositions comprising isoxazolo[5,4-b]pyridines” (BASF SE, priority 2014, dated 2021)
# What was measured:
# Assay in all cases: greenhouse post-emergence herbicidal test
# [1] = test system: POLCO; format: in vivo, Polygonum convolvulus; set-up: key to herbicidal activity against POLCO found: rating on a scale from 0 to 100; conditions: post emergence
# Procedure: (§1) The culture containers used were plastic pots containing medium loamy sand with approximately 4.6% of humus and 69.9% sand as substrate. The seeds of the test plants were sown separately for each species.
# (§2) For the post-emergence treatment, the test plants were grown to a plant height of from 1 to 15 cm, depending on the plant habit, and only then treated with the active compounds which had been suspended or emulsified in water. To this end, the test plants were either sown directly, and grown in the same containers, or they were first grown separately as seedlings and transplanted into the test containers a few days prior to treatment.
# (§3) Depending on the species, the plants were kept at 10-25° C. and 20-35° C., respectively.
# (§4) The test period extended over 1 to 3 weeks. During this time, the plants were tended and their response to the individual treatments was evaluated 20 days after treatment except mentioned otherwise.
# (§5) Evaluation was carried out using a scale from 0 to 100. 100 means no emergence of the plants, or complete destruction of at least the above-ground parts, and 0 means no damage or normal course of growth.
# (§6) The respective stated components A and B, and, if appropriate, C, were formulated as a 10% by weight strength emulsion concentrate and, with addition of the amount of solvent system, introduced into the spray liquor used for applying the active compound. In the examples, the solvent used was water.
# (§7) In the examples below, using the method of S. R. Colby (1967) “Calculating synergistic and antagonistic responses of herbicide combinations”, Weeds 15, p. 22 ff., the value E, which is expected if the activity of the individual active compounds is only additive, was calculated. E=X+Y−(X·Y/100)
# [2] = test system: ERICA; format: in vivo, Conyza canadensis; set-up: key to herbicidal activity against ERICA found: rating on a scale from 0 to 100; conditions: post emergence
# Procedure: as §1, §2, §3, §4, §5, §6, §7
# [3] = test system: GALAP; format: in vivo, Galium aparine; set-up: key to herbicidal activity against GALAP found: rating on a scale from 0 to 100; conditions: post emergence
# Procedure: as §1, §2, §3, §4, §5, §6, §7
# [4] = test system: MATCH; format: in vivo, Matricaria recutita; set-up: key to herbicidal activity against MATCH found: rating on a scale from 0 to 100; conditions: post emergence
# Procedure: as §1, §2, §3, §4, §5, §6, §7
# [5] = test system: ABUTH; format: in vivo, Abutilon theophrast; set-up: key to herbicidal activity against ABUTH found: rating on a scale from 0 to 100; conditions: post emergence; for herbicidal activity against ABUTH found: B.107 (topramezone) 6 g/ha, alone or as mixture (composition 1.107)
# Procedure: as §1, §2, §3, §4, §5, §6, §7
# [6] = test system: ALOMY; format: in vivo, Alopecurus myosuroides; set-up: key to herbicidal activity against ALOMY found: rating on a scale from 0 to 100; conditions: post emergence
# Procedure: as §1, §2, §3, §4, §5, §6, §7
# [7] = test system: VIOAR; format: in vivo, Viola arvensis; set-up: key to herbicidal activity against VIOAR found / herbicidal activity against VIOLA found: rating on a scale from 0 to 100; conditions: post emergence
# Procedure: as §1, §2, §3, §4, §5, §6, §7
# [8] = test system: GERDI; format: in vivo, Geranium dissectum; conditions: Geranium dissectum, post-emergence, 480 h, post emergence, read-out: herbicidal activity against GERDI found
# Procedure: as §1, §2, §3, §4, §5, §6, §7
# [9] = application rate a.i.: I.1 62.5 g/ha, B.107 (topramezone) 6 g/ha, alone or as mixture (composition 1.107)
# [10] = application rate a.i.: I.1 20.8 g/ha, B.107 (topramezone) 6 g/ha, alone or as mixture (composition 1.107)
# [11] = a.i. g/ha: I.1 31.25, B.92 0.5, 20 days after treatment
# [12] = g/ha a.i.: I.1 125, B.63 0.5, mixture 125+0.5
# [13] = g/ha a.i.: I.1 125, B.63 1, mixture 125+1
compound,measurement,setting,value
"Cc1c(C(=O)c2cnn(C)c2O)ccc(S(C)(=O)=O)c1C1=NOCC1 [B.107, topramezone]",herbicidal activity against POLCO found,[1]; [9],35
same,herbicidal activity against ERICA found,[2]; [10],65
same,herbicidal activity against ERICA found,[2]; [9],65
same,herbicidal activity against GALAP found,[3]; [9],70
same,herbicidal activity against MATCH found,[4]; [10],70
same,herbicidal activity against ABUTH found,[5]; application rate a.i.: I.1 20.8 g/ha,85
same,herbicidal activity against ABUTH found,[5]; application rate a.i.: I.1 62.5 g/ha,85
"CC(C)N(C)S(=O)(=O)NC(=O)c1cc(-n2c(=O)cc(C(F)(F)F)n(C)c2=O)c(F)cc1Cl [B.92, saflufenacil]",herbicidal activity against ERICA found,[2]; [11],80%
same,herbicidal activity against GALAP found,[3]; [11],80%
"COC(=O)c1ccc(I)cc1S(=O)(=O)[N-]C(=O)Nc1nc(C)nc(OC)n1.[Na+] [B.44, iodosulfuron-methyl-sodium]",herbicidal activity against POLCO found,[1]; 1 g/ha a.i.,90
same,herbicidal activity against ALOMY found,[6]; 1 g/ha a.i.,20
"CC(C)C1(C)N=C(c2ncccc2C(=O)O)NC1=O (stereo not shown) [B.35, imazapyr]",pest or weed control at 5 g/ha,"[1]; Fallopia convolvulus, post-emergence, 480 h, 5 g/ha a.i., read-out: herbicidal activity against POLCO found",95%
same,pest or weed control at 5 g/ha,"[2]; Erigeron canadensis, post-emergence, 480 h, 5 g/ha a.i., read-out: herbicidal activity against ERICA found",75%
same,pest or weed control at 10 g/ha,"[4]; Matricaria chamomilla, post-emergence, 480 h, 10 g/ha a.i., read-out: herbicidal activity against MATCH found",55%
same,pest or weed control at 5 g/ha,"[7]; Viola arvensis, post-emergence, 5 g/ha a.i., read-out: herbicidal activity against VIOAR found",55%
same,pest or weed control at 10 g/ha,"[5]; Abutilon theophrasti, post-emergence, 480 h, 10 g/ha a.i., read-out: herbicidal activity against ABUTH found",90%
same,pest or weed control at 10 g/ha,[8]; 10 g/ha a.i.,95%
"CCC(CC)Nc1c([N+](=O)[O-])cc(C)c(C)c1[N+](=O)[O-] [B.123, pendimethalin]",pest or weed control at 1000 g/ha,"[1]; Fallopia convolvulus, post-emergence, 480 h, B.123 alone 1000 g/ha a.i., read-out: herbicidal activity against POLCO found",65%
same,pest or weed control at 500 g/ha,"[2]; Erigeron canadensis, post-emergence, 480 h, B.123 alone 500 g/ha a.i., read-out: herbicidal activity against ERICA found",30%
same,pest or weed control at 1000 g/ha,"[2]; Erigeron canadensis, post-emergence, 480 h, B.123 alone 1000 g/ha a.i., read-out: herbicidal activity against ERICA found",60%
same,pest or weed control at 1000 g/ha,[8]; B.123 alone 1000 g/ha a.i.,75%
"COC(=O)c1ccccc1S(=O)(=O)NC(=O)N(C)c1nc(C)nc(OC)n1 [B.63, tribenuron-methyl]",herbicidal activity against POLCO found,"[1]; g/ha a.i.: I.1 31.25, B.63 1, mixture 31.25+1",30
same,herbicidal activity against POLCO found,[1]; [12],20
same,herbicidal activity against POLCO found,[1]; [13],30
same,herbicidal activity against MATCH found,[4]; [12],30
same,herbicidal activity against ALOMY found,[6]; [12],0
same,herbicidal activity against VIOAR found,"[7]; g/ha a.i.: I.1 62.5, B.63 0.5, mixture 62.5+0.5",65
same,herbicidal activity against VIOAR found,[7]; [13],40
